One assay has as its system LAL-CUN-2. Description: Cell proliferation assay, LAL-CUN-2 (ALL). In kind it is cell-based.
A further assay deals with MGH-U4. As to the kind of experiment: Cell proliferation assay, MGH-U4 (Bladder). It is filed as cell-based. The following applies: 48 hours. The protocol:
(§1) Cell proliferation was analyzed after 48 hours of in vitro treatment using the CellTiter 96 Aqueous One Solution Cell Proliferation Assay (Promega, Madison, Wis.). This is a colorimetric method for determining the number of viable cells in proliferation.
(§2) For the assay, suspension cells were cultured by triplicate at a density of 1×10^6 cells/ml in 96-well plates (100.000 cells/well, 100 μl/well), except for OCILY-3 and OCILY-10 cell lines which were cultured at a density of 0.5×10^6 cells/ml (50.000 cells/well, 100 μl/well) and for HepG2, Hep3B and PLC/PRF/5 cell ines which were cultured at a density of 3000 cells/well, 100 μl/well). Adherent cells were obtained from 80-90% confluent flasks and 100 μl of cells were seeded at a density of 5000 cells/well in 96-well plates by triplicate. Before addition of the compounds, adherent cells were allowed to attach to the bottom of the wells for 12 hours. […]
(§3) After 48 hours of treatment, plates with suspension cells were centrifuged at 800 g for 10 minutes and medium was removed. […] After 1-3 hours of incubation at 37° C., absorbance was measured at 490 nm in a 96-well plate reader. The background absorbance was measured in wells with only cell line medium and solution reagent. Data was calculated as a percentage of total absorbance of treated cell/absorbance of non treated cells. […]

The subject of the next assay is RT112. As to the kind of experiment: Cell proliferation assay, RT112 (Bladder). It is filed as cell-based. To be noted: Homo sapiens, RT-112, 48 hours. The method, then:
as §1, §2, §3

Another assay relates to SK-MEL-147. As to the kind of experiment: Cell proliferation assay, SK-MEL-147 (Melanoma). It is filed as cell-based. The following applies: Homo sapiens, 48 hours. The protocol:
as §1, §2, §3

The test system of a further assay is OCI-AML-2. Description: Cell proliferation assay, OCI-AML-2 (AML). In kind it is cell-based. The following applies: Homo sapiens. The method, then:
as §1
(§4) For the assay, suspension cells were cultured by triplicate at a density of 1×10^6 cells/ml in 96-well plates (100.000 cells/well, 100 μl/well), except for OCILY-3 and OCILY-10 cell lines which were cultured at a density of 0.5×10^6 cells/ml (50.000 cells/well, 100 μl/well) and for HepG2, Hep3B and PLC/PRF/5 cell ines which were cultured at a density of 3000 cells/well, 100 μl/well). Adherent cells were obtained from 80-90% confluent flasks and 100 μl of cells were seeded at a density of 5000 cells/well in 96-well plates by triplicate. Before addition of the compounds, adherent cells were allowed to attach to the bottom of the wells for 12 hours. In all cases, only the 60 inner wells were used to avoid any border effects.
(§5) After 48 hours of treatment, plates with suspension cells were centrifuged at 800 g for 10 minutes and medium was removed. The plates with adherent cells were flicked to remove medium. Then, cells were incubated with 100 ul/well of medium and 20 ul/well of CellTiter 96 Aqueous One Solution reagent. After 1-3 hours of incubation at 37° C., absorbance was measured at 490 nm in a 96-well plate reader. The background absorbance was measured in wells with only cell line medium and solution reagent. Data was calculated as a percentage of total absorbance of treated cell/absorbance of non treated cells.
Compounds 3-04 and 3-07 were tested against different solid tumour and oncohematological cell lines using the cell proliferation protocol described above.

In another assay the test system is HepG2. Description: Cell proliferation assay, HepG2 (HCC). In kind it is cell-based. The following applies: Homo sapiens, 48 hours of treatment, Table 3.
The next assay relates to Hep3B. As to the kind of experiment: Cell proliferation assay, Hep3B (HCC). It is filed as cell-based. To be noted: Homo sapiens, 48 hours of treatment, Table 3.
The subject of another assay is HUH7. Description: Cell proliferation assay, HUH7 (Hepatocarcinoma). It is filed as cell-based. To be noted: Homo sapiens, Huh-7, 48 hours. The method, then: as §1, §2, §3
In the next assay the test system is SK-MEL-103. Description: Cell proliferation assay, SK-MEL-103 (Melanoma). In kind it is cell-based. The following applies: Homo sapiens, 48 hours. The method, then:
as §1, §2, §3

In a further assay the test system is HCT-116. As to the kind of experiment: Cell proliferation assay, HCT-116 (Colorectal). It is filed as cell-based. The following applies: Homo sapiens, 48 hours. The method, then:
as §1, §2, §3

The subject of the next assay is PLC/PRF/5. Description: Cell proliferation assay, PLC/PRF/5 (HCC). In kind it is cell-based. To be noted: Homo sapiens, 48 hours of treatment, Table 3.
A further assay concerns MCF-7. As to the kind of experiment: Cell proliferation assay, MCF-7 (Breast). It is filed as cell-based. To be noted: Homo sapiens, MCF7, 48 hours. The protocol: as §1, §2, §3
The next assay relates to HELA. Description: Cell proliferation assay, HELA (Cervical). It is filed as cell-based. To be noted: Homo sapiens, 48 hours. The protocol: as §1, §2, §3
The next assay concerns 451-LU. As to the kind of experiment: Cell proliferation assay, 451-LU (Melanoma). To be noted: 48 hours. In kind it is cell-based. The method, then: as §1, §2, §3
A further assay concerns MGH-U3. Description: Cell proliferation assay, MGH-U3 (Bladder). It is filed as cell-based. To be noted: 48 hours. The protocol: as §1, §2, §3
For the next assay, the system named is MOLM-13. Description: Cell proliferation assay, MOLM-13 (AML). In kind it is cell-based. To be noted: Homo sapiens, 48 hours. The method, then: as §1, §2, §3
The test system of a further assay is Sk-Hep1. As to the kind of experiment: Cell proliferation assay, Sk-Hep1 (Hepatocarcinoma). In kind it is cell-based. The following applies: Homo sapiens, 48 hours. The protocol: as §1, §2, §3
Another assay concerns COLO-205. As to the kind of experiment: Cell proliferation assay, COLO-205 (Colorectal). It is filed as cell-based. The following applies: Homo sapiens, 48 hours. The method, then: as §1, §2, §3
In the next assay the test system is HCC95. As to the kind of experiment: Cell proliferation assay, HCC95 (small-cell lung cancer). It is filed as cell-based. To be noted: Homo sapiens, non-small-cell lung cancer, 48 hours. The protocol: as §1, §2, §3
A further assay deals with DNMT3A/3L (Homo sapiens, UniProt Q9Y6K1). As to the kind of experiment: DNMT3A enzyme activity assay (chemiluminescence BPS DNMT Universal Assay Kit). It is filed as biochemical. The method, then: DNMT3A and DNMT3B activity assays were carried out with the chemiluminiscence BPS DNMT Universal Assay Kit (BPS#52035) using a strip 96-well plate pre-coated with DNMT substrate.
Sequence of DNMT3A/3L (Q9Y6K1 whole entry, looked up): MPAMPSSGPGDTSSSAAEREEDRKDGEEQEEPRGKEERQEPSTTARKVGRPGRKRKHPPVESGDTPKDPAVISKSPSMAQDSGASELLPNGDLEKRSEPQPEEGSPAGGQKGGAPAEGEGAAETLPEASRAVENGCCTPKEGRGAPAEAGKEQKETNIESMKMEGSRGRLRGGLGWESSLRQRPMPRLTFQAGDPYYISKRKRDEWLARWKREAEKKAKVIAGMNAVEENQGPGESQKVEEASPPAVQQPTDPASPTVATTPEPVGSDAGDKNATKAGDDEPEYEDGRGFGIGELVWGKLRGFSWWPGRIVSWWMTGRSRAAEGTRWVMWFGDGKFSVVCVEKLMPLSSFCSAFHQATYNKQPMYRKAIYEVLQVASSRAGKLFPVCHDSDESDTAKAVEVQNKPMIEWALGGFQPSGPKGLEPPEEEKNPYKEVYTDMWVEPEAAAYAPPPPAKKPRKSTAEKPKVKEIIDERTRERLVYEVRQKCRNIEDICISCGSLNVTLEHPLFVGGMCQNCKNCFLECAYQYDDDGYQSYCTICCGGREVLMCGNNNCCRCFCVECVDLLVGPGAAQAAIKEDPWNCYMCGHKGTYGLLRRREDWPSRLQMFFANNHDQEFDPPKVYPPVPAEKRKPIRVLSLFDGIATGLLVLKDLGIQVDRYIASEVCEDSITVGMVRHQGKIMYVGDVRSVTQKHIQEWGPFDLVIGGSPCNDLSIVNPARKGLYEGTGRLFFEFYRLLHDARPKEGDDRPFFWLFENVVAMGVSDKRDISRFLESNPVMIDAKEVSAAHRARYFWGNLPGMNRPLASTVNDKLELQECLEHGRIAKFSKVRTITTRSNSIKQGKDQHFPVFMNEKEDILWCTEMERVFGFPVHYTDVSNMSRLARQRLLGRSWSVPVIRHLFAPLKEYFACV
Sequence of DNMT3A/3L (Q9UJW3 whole entry partner): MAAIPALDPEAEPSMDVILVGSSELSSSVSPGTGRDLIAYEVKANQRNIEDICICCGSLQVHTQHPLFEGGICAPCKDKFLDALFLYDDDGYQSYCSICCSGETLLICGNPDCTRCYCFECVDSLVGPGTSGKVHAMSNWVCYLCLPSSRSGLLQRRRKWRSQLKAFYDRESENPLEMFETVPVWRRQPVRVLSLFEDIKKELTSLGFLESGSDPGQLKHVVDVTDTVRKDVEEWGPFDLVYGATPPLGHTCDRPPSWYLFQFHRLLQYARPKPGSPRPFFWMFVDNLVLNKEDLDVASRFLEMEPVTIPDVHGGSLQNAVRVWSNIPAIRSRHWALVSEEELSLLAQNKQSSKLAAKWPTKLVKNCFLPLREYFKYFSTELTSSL
The enzyme activity assay protocol is as follows: • Rehydrate the microwells by adding 150 μL of TBST buffer (1× Tris-buffered saline (TBS), pH 8.0, containing 0.05% Tween-20) to every well. Incubate 15 minutes at room temperature. • Dilute each purified DNMT [DNMT3A/3L (BPS#51106) or DNMT3B/3L (BPS#51109)] in 1×DNMT assay buffer 2 (BPS#52201) at 5-10 ng/μL. Keep diluted enzyme on ice until use. • Prepare 50 μL of reaction mixture consisting of 20 μL of DNMT (5-10 ng/μL), 12.5 μL of 4×DNMT assay buffer 2 (BPS#52201), 2.5 μL of S-adenosylmethionine 400 μM, test compound at concentrations ranging from 3 nM to 10 μM and H2O up to 50 μL. • Add the entire reaction mixture to the substrate coated wells. […]
Incubate for 30 min at room temperature with slow shaking. • Wash plate three times with TBST buffer and incubate in Blocking buffer shaking on a rotating platform for 10 min. […] Immediately read luminescence using a BioTek Synergy™2 microplate reader.
The chemiluminescence intensity data were analyzed and compared. […] Calculated IC50 values were determined using non-linear regression analysis of Sigmoidal dose-response curve generated with a four-parameters inhibition curve.

In a further assay the test system is U266. As to the kind of experiment: Cell proliferation assay, U266 (MM). In kind it is cell-based. The following applies: Homo sapiens, U-266, Table 5 comparison. The method, then:
as §1, §4, §5

Another assay deals with A498. Description: Cell proliferation assay, A498 (Renal). It is filed as cell-based. The following applies: Homo sapiens, 48 hours. The method, then: as §1, §2, §3

For orientation: GI50 means the concentration that inhibits growth by half. Broadly, the IC50 is the midpoint of a concentration-inhibition curve.

The structures appear in SMILES notation. Bounds are passed on as bounds.

Regarding `COc1cc2c(NC3CCN(C)CC3)cc(-c3ccc(C)o3)nc2cc1OCCCN1CCCC1.O=C(O)C(F)(F)F` [Compound 3-04, 6-methoxy-2-(5-methyl-2-furyl)-N-(1-methyl-4-piperidyl)-7-(3-pyrrolidin-1-ylpropoxy)quinolin-4-amine; 2,2,2-trifluoroacetic acid], the 50% growth inhibitory concentration (GI50) was in the range of 100 to 1000 nM in the assay on LAL-CUN-2 (48 hours of treatment, Table 3); 100 to 1000 nM in the assay with LAL-CUN-2 (ALL, Table 5 comparison); 100 to 1000 nM in the assay with MGH-U4; 100 to 1000 nM with RT112; 100 to 1000 nM with SK-MEL-147; 100 to 1000 nM in the assay with OCI-AML-2 (OCI-AML2, 48 hours, Table 4). The GI50 was 100 to 1000 nM with OCI-AML-2 (OCI-AML2, Table 5 comparison); 100 to 1000 nM in the assay on HepG2; 100 to 1000 nM with Hep3B; at most 100 nM with HUH7; 100 to 1000 nM in the assay on SK-MEL-103; 100 to 1000 nM in the assay on HCT-116. In addition, the GI50 in the assay on PLC/PRF/5, in the assay with MCF-7, in the assay with HELA, in the assay with 451-LU, in the assay on MGH-U3 and in the assay on MOLM-13 was 100 to 1000 nM each time. Also, the GI50 is 100 to 1000 nM in the assay on Sk-Hep1; 100 to 1000 nM in the assay with COLO-205; 100 to 1000 nM in the assay on HCC95; 1000 to 10000 nM with U266; above 10000 nM in the assay with A498. For the same compound, the concentration for half-maximal inhibition (IC50) at DNMT3A/3L is below 100 nM.
Turning to `COc1cc2c(NCC3CCN(C)CC3)cc(-c3ccc(C)o3)nc2cc1OCCCN1CCCC1` [Compound 3-07], the GI50 is 100 to 1000 nM with LAL-CUN-2 (48 hours of treatment, Table 3); 100 to 1000 nM in the assay with LAL-CUN-2 (ALL, Table 5 comparison); 100 to 1000 nM with MGH-U4; 100 to 1000 nM in the assay with RT112; at most 100 nM in the assay on SK-MEL-147; 100 to 1000 nM in the assay with OCI-AML-2 (OCI-AML2, 48 hours, Table 4). In addition, the GI50 with OCI-AML-2 (OCI-AML2, Table 5 comparison) is 100 to 1000 nM; in the assay on HepG2, 100 to 1000 nM; in the assay on Hep3B, 100 to 1000 nM; in the assay on HUH7 it was 100 to 1000 nM; with SK-MEL-103, at most 100 nM; in the assay with HCT-116, 100 to 1000 nM. For the same compound, the 50% growth inhibitory concentration (GI50) in the assay on PLC/PRF/5 was 100 to 1000 nM; with MCF-7, 1000 to 10000 nM; with HELA, 100 to 1000 nM; with 451-LU, at most 100 nM; in the assay on MGH-U3 it was 100 to 1000 nM; in the assay with MOLM-13 it was 1000 to 10000 nM. In addition, the GI50 was in the range of 100 to 1000 nM in the assay on Sk-Hep1; 100 to 1000 nM in the assay with COLO-205; 100 to 1000 nM with HCC95; 1000 to 10000 nM with U266; 100 to 1000 nM with A498. Moreover, the concentration for half-maximal inhibition (IC50) on DNMT3A/3L was below 100 nM.

For the origin of these results see patent publication US9840500B2, “Compounds as dual inhibitors of histone methyltransferases and DNA methyltransferases” (FUNDACIÓN PARA LA INVESTIGACIÓN MÉDICA APLICADA, priority 2014, dated 2017).
